Measured values from patent publication US8680111B2 (Pfizer Inc., priority 2012, dated 2014).

What was measured:
[1] = target: T1, human recombinant wild-type ALK kinase domain (amino acids 1093-1411) (Homo sapiens, UniProt Q9UM73); test: Wild-type ALK enzyme assay (microfluidic mobility shift); format: biochemical; details: ATP 60 μM, competitive inhibition fit, read-out: WT ALK enzyme assay (Ki)
T1 construct: ALK kinase domain (amino acids 1093-1411); made in house
Experimental: The reactions were incubated for 1 h at room temperature, stopped by the addition of 0.1 M EDTA, pH 8, and the extent of reactions (˜15-20% conversion with no inhibitor) was determined after electrophoretic separation of the fluorescently labeled peptide substrate and phosphorylated product on an LabChip EZ Reader II (Caliper Life Sciences, Hopkinton, Mass.).

[2] = target: T2, human recombinant L1196M ALK kinase domain (amino acids 1093-1411) (Homo sapiens, UniProt Q9UM73, L1196M); test: L1196M mutant ALK enzyme assay (microfluidic mobility shift); format: biochemical; details: ATP 60 μM, 0.5 nM enzyme, competitive inhibition fit; read-out: L1196M ALK enzyme assay (Ki)
T2 construct: ALK kinase domain (amino acids 1093-1411); made in house

Molecule	Ki [1]	Ki [2]
7-amino-12-fluoro-3-methoxy-1,16,17-trimethyl-16,17-dihydro-1H-8,4-(azeno)pyrazolo[4,3-h][2,5,11]benzoxadiazacyclotetradecin-15(10H)-one [Example 126]	540 nM	1070 nM
7-amino-12-fluoro-3-methoxy-1,16,17-trimethyl-16,17-dihydro-1H-8,4-(azeno)pyrazolo[4,3-h][2,5,11]benzoxadiazacyclotetradecin-15(10H)-one [Example 128]	138 nM	386 nM
CCN1Cc2c(c(C)nn2C)-c2cnc(N)c(c2)OC(C)c2cc(F)ccc2C1=O (single isomer, unassigned) [Example 10, 7-amino-16-ethyl-12-fluoro-1,3,10-trimethyl-16,17-dihydro-1H-8,4-(metheno)pyrazolo[4,3-h][2,5,11]benzoxadiazacyclotetradecin-15(10H)-one]	13 nM	34 nM
CC1Oc2cc(cnc2N)-c2c(nn(C)c2C2CC2)CN(C)C(=O)c2ccc(F)cc21 (single isomer, unassigned) [Example 15, 7-amino-3-cyclopropyl-12-fluoro-2,10,16-trimethyl-16,17-dihydro-2H-8,4-(metheno)pyrazolo[4,3-h][2,5,11]benzoxadiazacyclotetradecin-15(10H)-one]	< 0.2 nM	2.5 nM
CC1Oc2cc(cnc2N)-c2c(nn(C)c2C2CC2)CN(C)C(=O)c2ccc(F)cc21 (single isomer, unassigned) [Example 16, 7-amino-3-cyclopropyl-12-fluoro-2,10,16-trimethyl-16,17-dihydro-2H-8,4-(metheno)pyrazolo[4,3-h][2,5,11]benzoxadiazacyclotetradecin-15(10H)-one]	213 nM	> 2270 nM
COc1c2c(nn1C)CN(C)C(=O)c1ccc(F)cc1C(C)Oc1cc-2cnc1N (single isomer, unassigned) [Example 20, 7-amino-12-fluoro-3-methoxy-2,10,16-trimethyl-16,17-dihydro-2H-8,4-(metheno)pyrazolo[4,3-h][2,5,11]benzoxadiazacyclotetradecin-15(10H)-one]	34 nM	450 nM
CCC1Oc2cc(cnc2N)-c2c(OC)nn(C)c2CN(C)C(=O)c2ccc(F)cc21 (single isomer, unassigned) [Example 24, 7-amino-10-ethyl-12-fluoro-3-methoxy-1,16-dimethyl-16,17-dihydro-1H-8,4-(metheno)pyrazolo[4,3-h][2,5,11]benzoxadiazacyclotetradecin-15(10H)-one]	4.6 nM	14 nM
CC1Oc2nc(cnc2N)-c2c(nn(C)c2C#N)CN(C)C(=O)c2ccc(F)cc21 (single isomer, unassigned) [Example 33, 7-amino-12-fluoro-2,10,16-trimethyl-15-oxo-10,15,16,17-tetrahydro-2H-8,4-(azeno)pyrazolo[4,3-h][2,5,11]benzoxadiazacyclotetradecine-3-carbonitrile]	1010 nM	> 2680 nM
CC1Oc2cc(cnc2N)-c2c(nn(C)c2C#N)CN(C)C(=O)c2c(F)cccc21 (single isomer, unassigned) [Example 53, 7-amino-14-fluoro-2,10,16-trimethyl-15-oxo-10,15,16,17-tetrahydro-2H-8,4-(metheno)pyrazolo[4,3-h][2,5,11]benzoxadiazacyclotetradecine-3-carbonitrile]	25.8 nM	164 nM
COc1nn(C)c2c1-c1cnc(N)c(c1)OC(C)c1cccnc1C(=O)N(C)C2 (single isomer, unassigned) [Example 66, 7-amino-3-methoxy-1,10,16-trimethyl-16,17-dihydro-1H-8,4-(metheno)-pyrazolo[4,3-g]pyrido[2,3-l][1,4,10]oxadiazacyclotetradecin-15(10H)-one]	19.3 nM	122 nM
CC1Oc2cc(cnc2N)-c2c(C(C)(C)C)nn(C)c2CN(C)C(=O)c2ncccc21 (single isomer, unassigned) [Example 68, 7-amino-3-tert-butyl-1,10,16-trimethyl-16,17-dihydro-1H-8,4-(metheno)pyrazolo[4,3-g]pyrido[2,3-l][1,4,10]oxadiazacyclotetradecin-15(10H)-one]	207 nM	> 1500 nM
CC1Oc2cc(cnc2N)-c2c(C(C)(C)C)nn(C)c2CN(C)C(=O)c2ncccc21 (single isomer, unassigned) [Example 69, 7-amino-3-tert-butyl-1,10,16-trimethyl-16,17-dihydro-1H-8,4-(metheno)pyrazolo[4,3-g]pyrido[2,3-l][1,4,10]oxadiazacyclotetradecin-15(10H)-one]	> 3000 nM	> 3000 nM
CC1c2nn(C)c(C#N)c2-c2cnc(N)c(n2)OCc2cc(F)ccc2C(=O)N1C (single isomer, unassigned) [Example 80, 7-amino-12-fluoro-2,16,17-trimethyl-15-oxo-10,15,16,17-tetrahydro-2H-8,4-(azeno)pyrazolo[4,3-h][2,5,11]benzoxadiazacyclotetradecine-3-carbonitrile]	> 3000 nM	> 3000 nM
CN1Cc2nn(C)c(C#N)c2-c2cnc(N)c(c2)OC(CF)c2cc(F)ccc2C1=O (single isomer, unassigned) [Example 84, 7-amino-12-fluoro-10-(fluoromethyl)-2,16-dimethyl-15-oxo-10,15,16,17-tetrahydro-2H-8,4-(metheno)pyrazolo[4,3-h][2,5,11]benzoxadiazacyclotetradecine-3-carbonitrile]	29.3 nM	90.2 nM
COc1nn(C)c2c1-c1cnc(N)c(c1)OC(CF)c1cc(F)ccc1C(=O)N(C)C2 (single isomer, unassigned) [Example 87, 7-amino-12-fluoro-10-(fluoromethyl)-3-methoxy-1,16-dimethyl-16,17-dihydro-1H-8,4-(metheno)pyrazolo[4,3-h][2,5,11]benzoxadiazacyclotetradecin-15(10H)-one]	270 nM	51 nM
CC1Oc2nc(cnc2N)-c2c(nn(C)c2C#N)COCc2ccc(F)cc21 (single isomer, unassigned) [Example 106, 7-amino-12-fluoro-2,10-dimethyl-2,10,15,17-tetrahydro-8,4-(azeno)pyrazolo[4,3-h][2,11,5]benzodioxazacyclotetradecine-3-carbonitrile]	> 3000 nM	> 3000 nM
CC1Oc2cc(cnc2N)-c2c(cnn2C)CCCCCOc2ccc(F)cc21 (single isomer, unassigned) [Example 130, 12-fluoro-1,14-dimethyl-1,4,5,6,7,8-hexahydro-14H-16,20-(metheno)-pyrazolo-[4,3-g][1,14,11]benzodioxazacycloheptadecin-17-amine]	> 3000 nM	> 3000 nM
CC1Oc2cc(cnc2N)-c2c(cnn2C)CCCCCOc2ccc(F)cc21 (single isomer, unassigned) [Example 131, 12-fluoro-1,14-dimethyl-1,4,5,6,7,8-hexahydro-14H-16,20-(metheno)-pyrazolo-[4,3-g][1,14,11]benzodioxazacycloheptadecin-17-amine]	78.3 nM	794 nM
Cn1ncc2c1-c1cnc(N)c(c1)OCc1cc(F)ccc1OCCCCC2 [Example 42, 12-fluoro-1-methyl-1,4,5,6,7,8-hexahydro-14H-16,20-(metheno) pyrazolo[4,3-g][1,14,11]benzodioxazacycloheptadecin-17-amine]	500 nM	2.89 nM
